The values that follow are results of earlier work, collected in US5807857A, “Piperazine, piperidine and tetrahydropyridine derivative of indol-3-alkyl as 5-HT1D-α agonists” (Merck Sharp & Dohme Ltd., priority 1994, dated 1998).

Each structure is given as a SMILES string.

Data set [1] has as its system human 5-HT1Dα and 5-HT1Dβ receptor subtypes. The settings on record: cf. WO-A-91/17174, Table 1.
For data set [2] the following is noted: administration to humans at therapeutic doses.

Consider `CNS(=O)(=O)Cc1ccc2[nH]cc(CCN(C)C)c2c1` [sumatriptan], for which, in data set [1], the “discrimination between the human 5-HT1Dα and 5-HT1Dβ receptor subtypes” value is “barely discriminates”. Besides, the “adverse cardiovascular events in humans” value in data set [2] is given as “certain adverse cardiovascular events”.
